Assay results as given in the supplement of paper PMC11451515.

Legend:
Conditions in all cases: 48 h
NOMO1 [1] = experiment: cell viability relative to DMSO control; higher = less cytotoxic
Summary of the method: (§1)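 Library compounds in DMSO were pin-dosed into 1536-well plates (5 μl) holding NOMO1 or SEM (500 cells/well) or P12-Ichikawa (1000 cells/well) leukemia cells, across an 11-point threefold series of 47 μM to 0.79 nM. Each cell line had been adapted for at least four passages in each medium. CellTiter-Glo One luminescence was read after 48 h at 37°C. Viability is the per-plate percentage relative to DMSO wells, with cell-free wells as background.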

P12-Ichikawa [2] = experiment: as above
Summary of the method: as §1

SEM cells [3] = experiment: as above
Summary of the method: as §1

NOMO1 [4] = experiment: AUC of viability dose-response curve (% viability x log10 dose units); higher = less sensitive
Summary of the method: (§2)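 Leukemia cells adapted to each medium were seeded at 500 or 1000 cells/well in 1536-well plates and dosed with library compounds in DMSO at 11 threefold doses from 47 μM to 0.79 nM for 48 h at 37°C. CellTiter-Glo One luminescence was normalised per plate to DMSO and cell-free wells, then fitted with a four-parameter log-logistic model over log10 doses. Area under the curve was taken from this fit by the trapezoidal rule, with curves above full viability scaled and curves failing quality control removed.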

P12-Ichikawa [5] = experiment: as above
Summary of the method: as §2

SEM cells [6] = experiment: as above
Summary of the method: as §2

CC(=O)N1CCN(c2ccc(OCc3nn(C)c(C)c3-c3cccc4c(CCCOc5cc(C)c(Cl)c(C)c5)c(C(=O)O)n(Cc5cccnc5)c34)cc2)CC1
cell viability [%]
Conditions	NOMO1 [1]	P12-Ichikawa [2]	SEM cells [3]
HPLM + 10% dialyzed FBS, 0.000781 µM	111	104	78.5
HPLM + 10% dialyzed FBS, 0.00234 µM	108	113	91.7
HPLM + 10% dialyzed FBS, 0.00702 µM	132	112	106
HPLM + 10% dialyzed FBS, 0.0211 µM	114	115	75.1
HPLM + 10% dialyzed FBS, 0.0632 µM	126	114	111
HPLM + 10% dialyzed FBS, 0.19 µM	130	111	118
HPLM + 10% dialyzed FBS, 0.569 µM	120	113	117
HPLM + 10% dialyzed FBS, 1.71 µM	130	107	105
HPLM + 10% dialyzed FBS, 5.12 µM	131	115	99.3
HPLM + 10% dialyzed FBS, 15.4 µM	120	113	97.4
HPLM + 10% dialyzed FBS, 46.1 µM	84.6	39.2	2.86
RPMI 5 mM glucose + 10% FBS, 0.000781 µM	111	105	97.6
RPMI 5 mM glucose + 10% FBS, 0.00234 µM	115	106	84.3
RPMI 5 mM glucose + 10% FBS, 0.00702 µM	124	115	97.8
RPMI 5 mM glucose + 10% FBS, 0.0211 µM	150	118	77.5
RPMI 5 mM glucose + 10% FBS, 0.0632 µM	130	120	97.3
RPMI 5 mM glucose + 10% FBS, 0.19 µM	136	127	104
RPMI 5 mM glucose + 10% FBS, 0.569 µM	146	116	117
RPMI 5 mM glucose + 10% FBS, 1.71 µM	126	123	100
RPMI 5 mM glucose + 10% FBS, 5.12 µM	120	125	82.5
RPMI 5 mM glucose + 10% FBS, 15.4 µM	134	126	54
RPMI 5 mM glucose + 10% FBS, 46.1 µM	94.6	64.9	1.85
RPMI 5 mM glucose + 10% dialyzed FBS, 0.000781 µM	115	104	96.3
RPMI 5 mM glucose + 10% dialyzed FBS, 0.00234 µM	112	115	101
RPMI 5 mM glucose + 10% dialyzed FBS, 0.00702 µM	122	115	106
RPMI 5 mM glucose + 10% dialyzed FBS, 0.0211 µM	135	122	81.2
RPMI 5 mM glucose + 10% dialyzed FBS, 0.0632 µM	135	125	111
RPMI 5 mM glucose + 10% dialyzed FBS, 0.19 µM	133	121	112
RPMI 5 mM glucose + 10% dialyzed FBS, 0.569 µM	139	112	110
RPMI 5 mM glucose + 10% dialyzed FBS, 1.71 µM	142	110	121
RPMI 5 mM glucose + 10% dialyzed FBS, 5.12 µM	156	118	94.6
RPMI 5 mM glucose + 10% dialyzed FBS, 15.4 µM	137	115	77.5
RPMI 5 mM glucose + 10% dialyzed FBS, 46.1 µM	124	66.7	1.96

AUC of viability dose-response curve
Conditions	NOMO1 [4]	P12-Ichikawa [5]	SEM cells [6]
HPLM + 10% dialyzed FBS	469	461	453
RPMI 5 mM glucose + 10% FBS	471	459	413
RPMI 5 mM glucose + 10% dialyzed FBS	457	467	441

CSC1=CC(=CC=C1)NC2=NC3=C(C=N2)/C=C(C(=O)N3C)/C4=C(Cl)C=CC=C4Cl
cell viability [%]
Conditions	NOMO1 [1]	P12-Ichikawa [2]	SEM cells [3]
HPLM + 10% dialyzed FBS, 0.000781 µM	96.6	102	86.5
HPLM + 10% dialyzed FBS, 0.00234 µM	114	95	90.7
HPLM + 10% dialyzed FBS, 0.00702 µM	118	101	97.7
HPLM + 10% dialyzed FBS, 0.0211 µM	101	98.3	77.3
HPLM + 10% dialyzed FBS, 0.0632 µM	119	106	86.4
HPLM + 10% dialyzed FBS, 0.19 µM	101	110	89.7
HPLM + 10% dialyzed FBS, 0.569 µM	108	99.2	97
HPLM + 10% dialyzed FBS, 1.71 µM	107	105	99.4
HPLM + 10% dialyzed FBS, 5.12 µM	115	97.4	88.9
HPLM + 10% dialyzed FBS, 15.4 µM	114	95.1	77
HPLM + 10% dialyzed FBS, 46.1 µM	108	103	55.2
RPMI 5 mM glucose + 10% FBS, 0.000781 µM	96.1	99.6	120
RPMI 5 mM glucose + 10% FBS, 0.00234 µM	124	111	110
RPMI 5 mM glucose + 10% FBS, 0.00702 µM	128	115	110
RPMI 5 mM glucose + 10% FBS, 0.0211 µM	109	109	53.5
RPMI 5 mM glucose + 10% FBS, 0.0632 µM	118	115	105
RPMI 5 mM glucose + 10% FBS, 0.19 µM	101	106	97.4
RPMI 5 mM glucose + 10% FBS, 0.569 µM	121	112	126
RPMI 5 mM glucose + 10% FBS, 1.71 µM	118	112	120
RPMI 5 mM glucose + 10% FBS, 5.12 µM	103	109	112
RPMI 5 mM glucose + 10% FBS, 15.4 µM	116	95.5	91.4
RPMI 5 mM glucose + 10% FBS, 46.1 µM	102	102	81.3
RPMI 5 mM glucose + 10% dialyzed FBS, 0.000781 µM	84.7	110	96.1
RPMI 5 mM glucose + 10% dialyzed FBS, 0.00234 µM	95.5	109	89
RPMI 5 mM glucose + 10% dialyzed FBS, 0.00702 µM	104	110	91.9
RPMI 5 mM glucose + 10% dialyzed FBS, 0.0211 µM	91.3	90.8	80.1
RPMI 5 mM glucose + 10% dialyzed FBS, 0.0632 µM	120	110	96
RPMI 5 mM glucose + 10% dialyzed FBS, 0.19 µM	118	120	78.3
RPMI 5 mM glucose + 10% dialyzed FBS, 0.569 µM	109	112	103
RPMI 5 mM glucose + 10% dialyzed FBS, 1.71 µM	112	112	84.9
RPMI 5 mM glucose + 10% dialyzed FBS, 5.12 µM	111	109	84.3
RPMI 5 mM glucose + 10% dialyzed FBS, 15.4 µM	94	97.5	69.4
RPMI 5 mM glucose + 10% dialyzed FBS, 46.1 µM	108	97.7	52.4

AUC of viability dose-response curve
Conditions	NOMO1 [4]	P12-Ichikawa [5]	SEM cells [6]
HPLM + 10% dialyzed FBS	467	476	417
RPMI 5 mM glucose + 10% FBS	467	469	455
RPMI 5 mM glucose + 10% dialyzed FBS	460	464	407
